Measured values: patent publication US20030104945A1, “2,4-Diamino-1,3,5-triazines, their preparation, and their use as herbicides and plant growth regulators” (priority 2001, published 2003)

Key:
Format in all cases: in vivo
[1] = system: harmful plants such as Stellaria media, Lolium multiflorum, Amaranthus retroflexus, Sinapis alba, Avena sativa and Setaria viridis; experiment: Pre-emergence herbicidal action (greenhouse pot test); details: application rate of 1 kg or less active substance per hectare, scored after 3 to 4 weeks vs untreated controls
Description: Seeds and rhizome sections of monocotyledonous and dicotyledonous harmful plants are placed in sandy loam in plastic pots and covered with soil. The compounds according to the invention which are formulated in the form of wettable powders or emulsion concentrates at various rates, are then applied to the surface of the covering soil as aqueous suspension or emulsion at an application rate of 600 to 800 l of water per ha (converted).
After the treatment, the pots are placed in the greenhouse and kept under good growth conditions for the weeds. Visual scoring of the plant damage or the adverse effect on emergence is done after the test plants have emerged after an experimental period of 3 to 4 weeks in comparison with untreated controls.

[2] = system: harmful plants such as Sinapis alba, Echinochloa crus-galli, Lolium multiflorum, Stellaria media, Cyperus iria, Amaranthus retroflexus, Setaria viridus and …; experiment: Post-emergence herbicidal action (greenhouse pot test); details: three-leaf stage, application rate of 1 kg and less of active substance per hectare, scored after approx. 3 to 4 weeks vs untreated controls
Experimental: Seeds or rhizome sections of monocotyledonous and dicotyledonous weeds are placed in sandy loam soil in plastic pots, covered with soil and grown in the greenhouse under good growth conditions. Three weeks after sowing, the experimental plants are treated at the three-leaf stage. The compounds according to the invention, which are formulated as wettable powders or as emulsion concentrates, are sprayed at various rates onto the green plant organs at an application rate of 600 to 800 l of water per ha (converted). After the experimental plants have remained in the greenhouse for approx. 3 to 4 weeks under optimal growth conditions, the effect of the compositions is scored visually in comparison with untreated controls. The substances according to the invention also have a good herbicidal action against a broad spectrum of economically important grass weeds and broad-leaved weeds when applied post-emergence.

[3] = system: harmful plants which are typical of rice crops such as, for example, Cyperus monti, Echinochloa crus-galli and Sagittaria pygmaea; experiment: Activity against harmful plants in rice (paddy rice conditions); details: poured into paddy water at various dosages; scored about three weeks after application vs untreated controls; note: test concentration or dose not given here
Experimental: Transplanted and seeded rice and typical grass weeds and broad-leaved weeds in rice crops are grown in the greenhouse under paddy rice conditions (depth of the paddy water: 2-3 cm) in sealed plastic pots until they have reached the three-leaf stage (Echinochloa crus-galli 1.5-leaf). They are then treated with the compounds according to the invention. To this end, the formulated active substances are suspended, dissolved or emulsified in water and the product is poured into the paddy water of the test plants at various dosages. After the treatment has been carried out thus, the test plants are placed in the greenhouse under optimal growth conditions and kept like this over the entire experimental period.
About three weeks after application, the evaluation is carried out by is of visually scoring the plant damage in comparison with untreated controls.

CC(C)(F)c1nc(N)nc(NC(CC2CC2)[C@@H]2C[C@H]2c2ccccc2)n1 (relative stereo) [Example 5-1]
very good herbicidal activity: herbicidal activity, visual scoring of plant damage or adverse effect on emergence [1] | herbicidal activity, visual scoring [2] | herbicidal activity, visual scoring of plant damage [3]

CC(C)c1nc(N)nc(NC(CC2CC2)[C@@H]2C[C@H]2c2ccccc2)n1 (relative stereo) [Example 5-2]
very good herbicidal activity: herbicidal activity, visual scoring of plant damage or adverse effect on emergence [1] | herbicidal activity, visual scoring [2] | herbicidal activity, visual scoring of plant damage [3]

CCC(F)(CC)c1nc(N)nc(NC(CC2CC2)[C@@H]2C[C@H]2c2ccccc2)n1 (relative stereo) [Example 5-3]
very good herbicidal activity: herbicidal activity, visual scoring of plant damage or adverse effect on emergence [1] | herbicidal activity, visual scoring [2] | herbicidal activity, visual scoring of plant damage [3]

CCC(F)c1nc(NC=O)nc(NC(CC2CC2)[C@@H]2C[C@H]2c2ccccc2)n1 (relative stereo) [Example 5-4]
very good herbicidal activity: herbicidal activity, visual scoring of plant damage or adverse effect on emergence [1] | herbicidal activity, visual scoring [2] | herbicidal activity, visual scoring of plant damage [3]
